We go through 17 compounds from ChEMBL document CHEMBL5291721, “A preclinical secondary pharmacology resource illuminates target-adverse drug reaction associations of marketed drugs” (Nat Commun, 2023).

The target in one test is D(3) dopamine receptor (Homo sapiens, UniProt P35462).
Test [1] has as its target Beta-1 adrenergic receptor (Homo sapiens, UniProt P08588). The class given is functional.
Test [2] has as its target Gamma-aminobutyric acid receptor subunit alpha-1 (Rattus norvegicus, UniProt P62813).
The target of test [3] is T1, 5-hydroxytryptamine receptor 3A (Homo sapiens, UniProt P46098).
T1 sequence (P46098 whole entry): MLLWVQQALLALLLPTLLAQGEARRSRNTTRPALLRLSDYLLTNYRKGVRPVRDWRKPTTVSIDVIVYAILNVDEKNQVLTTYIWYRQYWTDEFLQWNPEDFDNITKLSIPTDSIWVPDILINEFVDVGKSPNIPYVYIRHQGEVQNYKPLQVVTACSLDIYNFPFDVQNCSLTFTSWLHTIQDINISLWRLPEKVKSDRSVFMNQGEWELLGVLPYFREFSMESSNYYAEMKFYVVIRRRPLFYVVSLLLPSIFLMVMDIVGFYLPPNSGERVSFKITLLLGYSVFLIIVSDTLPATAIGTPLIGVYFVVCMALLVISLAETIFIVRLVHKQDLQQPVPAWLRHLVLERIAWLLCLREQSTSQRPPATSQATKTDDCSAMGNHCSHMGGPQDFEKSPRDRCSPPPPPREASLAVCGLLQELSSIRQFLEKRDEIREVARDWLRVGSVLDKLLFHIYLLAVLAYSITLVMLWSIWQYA
The class given is functional.

The next test concerns the target Motilin receptor (Homo sapiens, UniProt O43193).
Test [4] concerns the target T2, Equilibrative nucleoside transporter 1 (Homo sapiens, UniProt Q99808).
T2 sequence (Q99808 whole entry): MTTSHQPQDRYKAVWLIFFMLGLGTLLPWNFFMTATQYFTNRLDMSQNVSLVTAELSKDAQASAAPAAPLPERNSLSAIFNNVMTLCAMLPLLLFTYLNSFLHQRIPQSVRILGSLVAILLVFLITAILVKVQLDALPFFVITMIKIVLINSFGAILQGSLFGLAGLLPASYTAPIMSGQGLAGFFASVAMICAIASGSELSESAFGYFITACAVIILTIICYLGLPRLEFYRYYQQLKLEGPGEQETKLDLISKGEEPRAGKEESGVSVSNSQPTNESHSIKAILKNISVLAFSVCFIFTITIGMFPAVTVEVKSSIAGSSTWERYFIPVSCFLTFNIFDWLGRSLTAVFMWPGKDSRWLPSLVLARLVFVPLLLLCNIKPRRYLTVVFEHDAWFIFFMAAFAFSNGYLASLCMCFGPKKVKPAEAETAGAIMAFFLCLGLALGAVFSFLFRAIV

Test [5] addresses T3, Amine oxidase [flavin-containing] A (Homo sapiens, UniProt P21397).
T3 sequence (P21397 whole entry): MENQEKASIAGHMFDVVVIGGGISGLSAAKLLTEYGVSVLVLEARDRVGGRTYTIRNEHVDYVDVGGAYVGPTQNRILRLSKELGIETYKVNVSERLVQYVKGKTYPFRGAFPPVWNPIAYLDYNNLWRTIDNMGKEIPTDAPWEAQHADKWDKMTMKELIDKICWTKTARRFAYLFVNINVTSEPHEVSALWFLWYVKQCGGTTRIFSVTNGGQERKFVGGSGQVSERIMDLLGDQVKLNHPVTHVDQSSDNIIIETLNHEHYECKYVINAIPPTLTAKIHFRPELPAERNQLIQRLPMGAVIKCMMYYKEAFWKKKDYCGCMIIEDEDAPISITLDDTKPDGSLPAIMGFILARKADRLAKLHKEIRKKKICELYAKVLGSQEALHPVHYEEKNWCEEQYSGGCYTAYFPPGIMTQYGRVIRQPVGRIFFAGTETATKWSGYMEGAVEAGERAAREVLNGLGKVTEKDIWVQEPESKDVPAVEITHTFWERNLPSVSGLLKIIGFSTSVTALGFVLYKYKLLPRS
The format is functional.

The target of test [6] is T4, Alpha-2A adrenergic receptor (Homo sapiens, UniProt P08913).
T4 sequence (P08913 whole entry): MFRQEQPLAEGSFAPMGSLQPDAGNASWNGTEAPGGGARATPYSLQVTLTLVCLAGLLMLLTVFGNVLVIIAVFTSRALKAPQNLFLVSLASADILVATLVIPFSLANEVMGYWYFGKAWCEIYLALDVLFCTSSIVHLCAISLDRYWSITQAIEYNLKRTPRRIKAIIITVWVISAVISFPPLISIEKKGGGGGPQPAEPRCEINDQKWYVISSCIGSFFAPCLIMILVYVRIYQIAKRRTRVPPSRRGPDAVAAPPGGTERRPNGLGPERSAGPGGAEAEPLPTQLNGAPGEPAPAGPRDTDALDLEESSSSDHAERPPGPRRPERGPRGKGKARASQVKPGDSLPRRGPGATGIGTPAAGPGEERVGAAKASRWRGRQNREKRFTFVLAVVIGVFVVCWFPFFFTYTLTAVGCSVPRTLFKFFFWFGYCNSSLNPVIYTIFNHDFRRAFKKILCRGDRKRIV
The format is functional, cell-based.
Also: assay procedure not described here.

Sequence of Motilin receptor (O43193 whole entry): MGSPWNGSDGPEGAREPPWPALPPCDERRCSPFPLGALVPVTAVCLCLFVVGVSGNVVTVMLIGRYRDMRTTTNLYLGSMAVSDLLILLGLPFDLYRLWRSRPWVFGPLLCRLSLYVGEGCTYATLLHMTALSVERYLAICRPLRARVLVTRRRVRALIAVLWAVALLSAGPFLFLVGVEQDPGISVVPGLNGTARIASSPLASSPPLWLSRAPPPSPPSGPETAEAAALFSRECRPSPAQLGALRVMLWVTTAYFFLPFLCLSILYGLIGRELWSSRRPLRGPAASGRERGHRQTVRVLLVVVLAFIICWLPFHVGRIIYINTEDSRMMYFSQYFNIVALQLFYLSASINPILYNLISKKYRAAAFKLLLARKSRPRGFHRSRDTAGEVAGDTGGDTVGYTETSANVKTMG
Sequence of D(3) dopamine receptor (P35462 whole entry): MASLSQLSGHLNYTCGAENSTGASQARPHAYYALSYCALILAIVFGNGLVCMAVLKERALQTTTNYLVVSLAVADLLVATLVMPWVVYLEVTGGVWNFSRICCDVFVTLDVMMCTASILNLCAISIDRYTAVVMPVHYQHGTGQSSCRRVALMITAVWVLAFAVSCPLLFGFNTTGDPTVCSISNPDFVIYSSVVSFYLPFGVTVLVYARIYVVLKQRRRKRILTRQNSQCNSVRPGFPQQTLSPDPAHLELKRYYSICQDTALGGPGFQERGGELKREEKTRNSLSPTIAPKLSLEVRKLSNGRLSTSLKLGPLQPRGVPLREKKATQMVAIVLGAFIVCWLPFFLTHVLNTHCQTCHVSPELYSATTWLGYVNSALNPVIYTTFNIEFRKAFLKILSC
Sequence of Gamma-aminobutyric acid receptor subunit alpha-1 (P62813 whole entry): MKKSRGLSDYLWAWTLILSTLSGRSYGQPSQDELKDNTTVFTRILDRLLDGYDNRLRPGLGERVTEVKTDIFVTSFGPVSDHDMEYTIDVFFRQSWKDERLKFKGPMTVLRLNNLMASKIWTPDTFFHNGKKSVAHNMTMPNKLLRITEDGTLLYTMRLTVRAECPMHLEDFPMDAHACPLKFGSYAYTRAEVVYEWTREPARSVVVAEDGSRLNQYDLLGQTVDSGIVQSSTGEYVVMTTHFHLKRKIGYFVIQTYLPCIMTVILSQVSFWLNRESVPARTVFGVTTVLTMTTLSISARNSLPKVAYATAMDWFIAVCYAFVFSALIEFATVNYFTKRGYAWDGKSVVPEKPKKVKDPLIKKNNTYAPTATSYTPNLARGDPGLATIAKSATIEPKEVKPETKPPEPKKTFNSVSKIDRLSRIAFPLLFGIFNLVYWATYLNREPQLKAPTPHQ
Sequence of Beta-1 adrenergic receptor (P08588 whole entry): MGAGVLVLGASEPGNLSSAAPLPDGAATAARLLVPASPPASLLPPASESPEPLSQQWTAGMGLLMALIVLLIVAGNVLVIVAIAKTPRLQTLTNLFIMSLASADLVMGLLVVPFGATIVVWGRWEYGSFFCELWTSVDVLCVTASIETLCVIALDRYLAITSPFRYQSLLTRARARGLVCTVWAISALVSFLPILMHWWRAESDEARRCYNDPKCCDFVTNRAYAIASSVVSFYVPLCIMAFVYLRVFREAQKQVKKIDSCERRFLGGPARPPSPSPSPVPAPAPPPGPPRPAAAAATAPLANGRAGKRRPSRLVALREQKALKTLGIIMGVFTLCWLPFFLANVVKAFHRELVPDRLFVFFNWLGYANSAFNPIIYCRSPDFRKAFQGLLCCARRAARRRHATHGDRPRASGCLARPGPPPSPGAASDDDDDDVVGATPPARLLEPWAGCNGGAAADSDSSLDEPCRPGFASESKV

As to `CCCCOc1cc(C(=O)NCCN(CC)CC)c2ccccc2n1` [DIBUCAINE], the AC50 was above 30 µM on D(3) dopamine receptor; above 10 µM in test [1]; above 30 µM in test [2]; above 30 µM in test [3]; above 30 µM on Motilin receptor; above 10 µM in test [4]. The AC50 in test [5] and in test [6] was above 10 µM throughout.
As for `CCC1(C2=CCCCCC2)C(=O)NC(=O)NC1=O` [HEPTABARBITAL], the AC50 at D(3) dopamine receptor is above 30 µM; in test [1], above 10 µM; in test [2], above 10 µM; in test [3], above 30 µM; on Motilin receptor, above 10 µM; in test [4], above 10 µM. The concentration at half-maximal activity (AC50) in test [5] and in test [6] was above 10 µM each time.
Take `CN1CC(=O)N2[C@H](c3ccc4c(c3)OCO4)c3[nH]c4ccccc4c3C[C@@H]2C1=O`: the concentration at half-maximal activity (AC50) at D(3) dopamine receptor is above 30 µM; in test [1], above 10 µM; in test [2], above 10 µM; in test [3], above 30 µM; at Motilin receptor, above 10 µM; in test [4], above 30 µM. In addition, the concentration at half-maximal activity (AC50) in test [5] and in test [6] was above 10 µM each time.
With `COC(=O)C1=C(C)NC(C)=C(C(=O)OC(C)C)C1c1cccc2nonc12` (configuration not stated) [ISRADIPINE], the AC50 at D(3) dopamine receptor was above 30 µM; in test [1] it was above 10 µM; in test [2], above 10 µM; in test [3] it was above 30 µM; on Motilin receptor it was 14.7 µM; in test [4] it was above 30 µM. Further, the AC50 is above 30 µM in test [5] and above 10 µM in test [6].
With `CCN1CCC[C@H]1CNC(=O)c1cc(S(N)(=O)=O)ccc1OC` [LEVOSULPIRIDE], the AC50 in test [1] is above 30 µM; in test [2] it was above 10 µM; in test [3], above 30 µM; on Motilin receptor, above 10 µM; in test [5], above 10 µM; in test [6], above 10 µM.
On to `COc1ccccc1OCC(O)COC(N)=O` (configuration not stated) [METHOCARBAMOL], for which the AC50 at D(3) dopamine receptor is above 30 µM; in test [1], above 10 µM; in test [2] it was above 10 µM; in test [3], above 30 µM; at Motilin receptor, above 10 µM; in test [4] it was above 10 µM. Also, the AC50 in test [5] and in test [6] was above 10 µM each time.
Take `CC(=O)OCC(=O)[C@@]12OC3(CCCC3)O[C@@H]1C[C@H]1[C@@H]3CCC4=CC(=O)C=C[C@]4(C)[C@@]3(F)[C@@H](O)C[C@@]12C` [AMCINONIDE]: the half-maximal activity concentration (AC50) was above 30 µM at D(3) dopamine receptor; above 10 µM in test [1]; above 10 µM in test [2]; above 30 µM in test [3]; above 10 µM on Motilin receptor; above 10 µM in test [4]. Further, the half-maximal activity concentration (AC50) in test [5] and in test [6] was above 10 µM each time.
Regarding `COc1c(N2CCNC(C)C2)c(F)cc2c(=O)c(C(=O)O)cn(C3CC3)c12` (configuration not stated) [GATIFLOXACIN], the AC50 at D(3) dopamine receptor is above 30 µM; in test [1] it was above 10 µM; in test [2], above 10 µM; in test [3], above 30 µM; at Motilin receptor, above 10 µM; in test [4], above 10 µM. The half-maximal activity concentration (AC50) in test [5] and in test [6] was above 10 µM each time.
As for `C#CCN[C@@H]1CCc2ccccc21` [RASAGILINE], the AC50 (at D(3) dopamine receptor; in test [1]; in test [2]; in test [3]; at Motilin receptor; in test [4]) was above 30 µM in each case. For the same compound, the AC50 in test [6] was above 30 µM.
Turning to `C#CCN(C)[C@H](C)Cc1ccccc1` [SELEGILINE], the concentration at half-maximal activity (AC50) at D(3) dopamine receptor is above 30 µM; in test [1] it was above 10 µM; in test [2], above 10 µM; in test [3] it was above 30 µM; at Motilin receptor, above 10 µM; in test [4], above 10 µM. In test [6], the AC50 was above 10 µM.
Turning to `CN1CCC2=C(C1)C(c1ccccc1)c1ccccc12` (configuration not stated) [PHENINDAMINE], the half-maximal activity concentration (AC50) on D(3) dopamine receptor was above 30 µM; in test [1] it was above 10 µM; in test [2] it was above 10 µM; in test [3], 12 µM; at Motilin receptor, above 10 µM; in test [4] it was above 30 µM. Further, the AC50 in test [5] and in test [6] was above 10 µM in each case.
Take `C#CC1(OC(N)=O)CCCCC1` [ETHINAMATE]: the concentration at half-maximal activity (AC50) was above 30 µM at D(3) dopamine receptor; above 10 µM in test [1]; above 10 µM in test [2]; above 30 µM in test [3]; above 10 µM on Motilin receptor; above 10 µM in test [4]. Besides, the half-maximal activity concentration (AC50) in test [5] and in test [6] was above 10 µM throughout.
In the case of `CN1C(=O)CC(=O)N(c2ccccc2)c2cc(Cl)ccc21` [CLOBAZAM], the concentration at half-maximal activity (AC50) was above 30 µM at D(3) dopamine receptor; above 10 µM in test [1]; above 10 µM in test [2]; above 10 µM in test [3]; above 10 µM at Motilin receptor; above 10 µM in test [4]. The concentration at half-maximal activity (AC50) in test [5] and in test [6] was above 10 µM each time.
Consider `CN[C@@H]1[C@H](O)[C@H](NC)[C@H]2O[C@@]3(O)C(=O)C[C@@H](C)O[C@H]3O[C@@H]2[C@H]1O` [SPECTINOMYCIN], for which the AC50 was above 30 µM on D(3) dopamine receptor; above 10 µM in test [1]; above 10 µM in test [2]; above 30 µM in test [3]; above 10 µM on Motilin receptor; above 10 µM in test [4]. Moreover, the AC50 in test [5] and in test [6] was above 10 µM throughout.
For the compound `CC1=CC(=O)c2ccccc2C1=O` [MENADIONE], the half-maximal activity concentration (AC50) was above 30 µM on D(3) dopamine receptor; above 10 µM in test [1]; above 10 µM in test [2]; above 30 µM in test [3]; above 10 µM at Motilin receptor; above 10 µM in test [4]. For the same compound, the AC50 in test [5] was 17 µM; in test [6], above 10 µM.
In the case of `CC(=O)O[C@@]12CO[C@@H]1C[C@H](O)[C@@]1(C)C(=O)[C@H](O)C3=C(C)[C@@H](OC(=O)[C@H](O)[C@@H](NC(=O)OC(C)(C)C)c4ccccc4)C[C@@](O)([C@@H](OC(=O)c4ccccc4)[C@H]21)C3(C)C` [DOCETAXEL ANHYDROUS], the AC50 (on D(3) dopamine receptor; in test [1]; in test [2]; in test [3]; on Motilin receptor; in test [4]) was above 30 µM each time. In addition, the concentration at half-maximal activity (AC50) in test [5] and in test [6] was above 30 µM throughout.
Regarding `CC(=O)NS(=O)(=O)c1ccc(N)cc1` [SULFACETAMIDE], the AC50 was above 30 µM on D(3) dopamine receptor; above 10 µM in test [1]; above 10 µM in test [2]; above 30 µM in test [3]; above 10 µM at Motilin receptor; above 10 µM in test [4]. Moreover, the concentration at half-maximal activity (AC50) in test [5] and in test [6] was above 10 µM each time.

For orientation: AC50 means the concentration giving half of the maximal activity seen.
